test system: γ-secretase; assay: γ-secretase HTS luciferase reporter assay (inhibition of Aβ formation) in H4 neuroglioma cells stably carrying pFRLuc and Aβ-KKK/Gal4; format: cell-based; settings: luciferase activity (Steady-Glo) in doubly stable H4 neuroglioma HTS cell line, test substance incubated overnight (8–16 h), compared with control
Text: The inhibition of Aβ formation was investigated using the following test system:
Preparation of a suitable γ-secretase HTS cell line:
H4 neuroglioma cells (Accession number HTB 148 at the “American Type Culture Collection”, Manassas, Va., USA) were transfected under standard conditions with the reporter construct pFRLuc (Stratagene) which carries the gene for luciferase. By transient transfection experiments with pcDNA3-Gal4 which codes for the soluble Gal4, an individual clone having the highest luciferase activity was selected. In order to prepare the Aβ-KKK/Gal4 construct, a sequence containing the N-terminal signal sequence of APP and the first 55 amino acids of Aβ (Shoji et al, 1992) was linked to the Gal4 coding sequence (Laughan, A and Gesteland, R Molec. Cell Biol., 1984, 4: 260–267) by genetic engineering and cloned into the expression vector pcDNA3neo (Invitrogen). This construct was called pcDNA3-AβKKK/Gal4. In order to insert an ER-retention signal in the substrate of the γ-secretase, the last nucleotides of the Gal4 were altered by genetic engineering so that they coded for the amino acids KKLI. This construct was named Aβ-KKK-ER. The cell clone obtained as described above was used for the second stable transfection with pcDNA3-Aβ-KKK/Gal4 or pcDNA3-Aβ-KKK-ER and the selection with neomycin was carried out under standard conditions (Sambrook and Maniatis, 1989). Individual neomycin-resistant cell clones were investigated for their expression of luciferase. The clones with the highest expression were used for the substance analyses. All the transfections were carried out using the Fugene transfection system supplied by Boehringer Mannheim, in accordance with the manufacturer's instructions.
The doubly stabile HTS cell line is seeded onto a 96/384 microtitre plate. When the cells are confluent, they are incubated with the particular test substance for a specified length of time. After incubation the cell medium is removed and the luciferase enzyme activity is determined precisely as instructed by the manufacturer of the test kit used (SteadyGlo, Promega).
As a result of the presence of an endogenous γ-secretase activity in the H4 cells the substrate (Aβ-KKK/Gal4) is cleaved proteolytically, while the transactivator Gal4 is able to become detached from the membrane and enter the cell nucleus. In the cell nucleus Gal4 binds to the Gal4-DNA binding domain of the reporter construct and thus activates the expression of the luciferase. If a specific γ-secretase inhibitor is present the substrate cannot be cleaved and Gal4 remains bound to the substrate on the cell membrane, leading to a reduction amounting to total inhibition of the luciferase activity.
Cells are seeded on 96/384 well plates in DMEM complete medium (10% FCS, 1% glutamine, 1% penicillin/streptomycin) in a dilution of 1:5. The cells are incubated for 24 to 48 h (depending on the cell clone and the dilution used) at 37° C., 5% CO2 and allowed to grow until 80–90% confluence is achieved. Then the test substance is added and the preparation is incubated overnight (8–16 h) at 37° C. and 5% CO2. The 96/384 well plates are equilibrated to ambient temperature (RT). The “Steady-Glo” Luciferase Assay System Kit (Promega catalogue no. E2520) is used. The Luciferase Assay Reagent is thawed and equilibrated to ambient temperature or freshly prepared (Luciferase Assay Substrate dissolved in Luciferase Assay Buffer). The medium is suction filtered […]. 100 μl (based on 96 well plates) of fresh complete medium are added per well. 100 μl (based on 96 well plates) of Luciferase Assay Reagent are added and the preparation is incubated for 5 min at RT. Then the luminescence is measured. For 384 well plates the quantities pipetted are reduced accordingly.
The measurements are compared with the control and then the IC50 is determined from a number of measurements.

IC50	SMILES
0.8 µM	CNc1nc(Nc2ccc(Cl)cc2)ncc1[N+](=O)[O-] [1 (1), 2-(4-chlorophenylamino)-4-methylamino-5-nitro-pyrimidine]
1 µM	CNc1nc(Nc2ccc(Cl)c(Cl)c2)ncc1N [2 (1), 2-(3,4-dichlorophenylamino)-4-methylamino-5-amino-pyrimidine]
0.06 µM	CNc1nc(Nc2ccc(Cl)c(Cl)c2)ncc1NS(C)(=O)=O [3 (3), 2-(3,4-dichlorophenylamino)-4-methylamino-5-methylsulphonylamino-pyrimidine]
0.06 µM	CNc1nc(Nc2ccc(Cl)c(Cl)c2)ncc1NC(C)=O [3 (4), 2-(3,4-dichlorophenylamino)-4-methylamino-5-acetylamino-pyrimidine]
0.6 µM	CNc1nc(Nc2ccc(Cl)c(Cl)c2)ncc1N1CCNC1=O [3 (26), 2-(3,4-dichlorophenylamino)-4-methylamino-5-(imidazolidin-2-on-1-yl)-pyrimidine]
0.2 µM	CNc1nc(Nc2ccc(Cl)c(Cl)c2)ncc1NC(=O)N1CCOCC1 [3 (30), 2-(3,4-dichlorophenylamino)-4-methylamino-5-morpholinocarbonylamino-pyrimidine]
0.3 µM	CNc1nc(Nc2ccc(Cl)c(Cl)c2)ncc1N1CCCNC1=O [3 (33), 2-(3,4-dichlorophenylamino)-4-methylamino-5-(tetrahydro-2(1H)-pyrimidinon-1-yl)-pyrimidine]
0.25 µM	CNc1nc(Nc2ccc(Cl)cc2F)ncc1NC(=O)N(C)C [3 (36), 2-(4-chloro-2-fluorophenylamino)-4-methylamino-5-(N,N-dimethylcarbamoyl-amino)-pyrimidine]
0.35 µM	CNc1nc(Nc2ccc(Cl)c(Cl)c2)ncc1NC(N)=O [3 (40), 2-(3,4-dichlorophenylamino)-4-methylamino-5-aminocarbonylamino-pyrimidine]
0.9 µM	CN(C)c1nc(Nc2ccc(Cl)c(Cl)c2)ncc1NC(=O)N1CCOCC1 [3 (54), 2-(3,4-dichlorophenylamino)-4-dimethylamino-5-(morpholinocarbonylamino)-pyrimidine]
0.9 µM	CCNc1nc(Nc2ccc(Cl)c(Cl)c2)ncc1NC(=O)N1CCOCC1 [3 (55), 2-(3,4-dichlorophenylamino)-4-ethylamino-5-(morpholinocarbonylamino)-pyrimidine]
0.15 µM	CNc1nc(Nc2cccc(Cl)c2)ncc1NC(=O)N1CCOCC1 [3 (59), 2-(3-chlorophenylamino)-4-methylamino-5-(morpholinocarbonylamino)-pyrimidine]
0.8 µM	CNc1nc(Nc2ccc(Cl)c(Cl)c2)ncc1NC(=O)C(F)(F)F [3 (66), 2-(3,4-dichlorophenylamino)-4-methylamino-5-trifluoracetylamino-pyrimidine]
1 µM	CN(C)CCCNc1nc(Nc2ccc(Cl)c(Cl)c2)ncc1[N+](=O)[O-] [4 (9), 2-(3,4-dichlorophenylamino)-4-[3-(dimethylamino)propylamino]-5-nitro-pyrimidine]
1 µM	CNc1nc(N(C)c2ccc(Cl)c(Cl)c2)ncc1N1CCNC1=O [8 (2), 2-[N-(3,4-dichlorophenyl)-N-methylamino]-4-methylamino-5-(imidazolidin-2-on-1-yl)-pyrimidine]
0.1 µM	CNc1nc(Nc2ccc(Cl)c(Cl)c2)ncc1NC(=O)N1CCN(C)CC1 [11 (2), 2-(3,4-dichlorophenylamino)-4-methylamino-5-(4-methylpiperazinocarbonylamino)-pyrimidine]
0.004 µM	CNc1nc(Nc2ccc(Cl)c(Cl)c2)ncc1NC(=O)N(CCOC)CCOC [11 (3), 2-(3,4-dichlorophenylamino)-4-methylamino-5-[[bis-(2-methoxyethyl)amino]-carbonylamino]-pyrimidine]
0.06 µM	CNc1nc(Nc2ccc(Cl)c(Cl)c2)ncc1NC(=O)N1CCCCCC1 [11 (4), 2-(3,4-dichlorophenylamino)-4-methylamino-5-(hexamethyleneiminocarbonylamino)-pyrimidine]
0.1 µM	CCN(CC)C(=O)Nc1cnc(Nc2ccc(Cl)c(Cl)c2)nc1NC [11 (5), 2-(3,4-dichlorophenylamino)-4-methylamino-5-(diethylaminocarbonylamino)-pyrimidine]
0.7 µM	CNc1nc(Nc2ccc(Cl)c(Cl)c2)ncc1NC(=O)N1CCNCC1 [11 (6), 2-(3,4-dichlorophenylamino)-4-methylamino-5-(piperazinocarbonylamino)-pyrimidine]
1 µM	CNc1nc(Nc2ccc(Cl)c(Cl)c2)ncc1NC(=O)N1CCN(C(C)=O)CC1 [11 (7), 2-(3,4-dichlorophenylamino)-4-methylamino-5-(4-acetylpiperazinocarbonylamino)-pyrimidine]
0.2 µM	CNc1nc(Nc2ccc(Cl)c(Cl)c2)ncc1NC(=O)N(C)CCO [11 (8), 2-(3,4-dichlorophenylamino)-4-methylamino-5-[[N-methyl-(2-hydroxyethyl)-amino]carbonylamino]-pyrimidine]
0.8 µM	CNc1nc(Nc2ccc(Cl)c(Cl)c2)ncc1NC(=O)N(C)CCN(C)C [11 (10), 2-(3,4-dichlorophenylamino)-4-methylamino-5-[[N-methyl-(2-dimethylamino-ethyl)amino]carbonylamino]-pyrimidine]
0.7 µM	CNc1nc(Nc2ccc(Cl)c(Cl)c2)ncc1NC(=O)N(C)CCCN(C)C [11 (11), 2-(3,4-dichlorophenylamino)-4-methylamino-5-[[N-methyl-(3-dimethylaminopropyl)amino]carbonylamino]-pyrimidine]
1 µM	CNc1nc(Nc2ccc(Cl)c(Cl)c2)ncc1NC(=S)N1CCOCC1 [11 (12), 2-(3,4-dichlorophenylamino)-4-methylamino-5-(morpholinothiocarbonylamino)-pyrimidine]
1.1 µM	CNc1nc(Nc2ccc(Cl)c(Cl)c2)ncc1N(C)S(C)(=O)=O [Example 8, 2-(3,4-dichlorophenylamino)-4-methylamino-5-(N-methyl-methylsulphonylamino)-pyrimidine]
0.1 µM	CNc1nc(Nc2ccc(Cl)c(Cl)c2)ncc1NC(=O)N1CCCC1 [Example 11, 2-(3,4-dichlorophenylamino)-4-methylamino-5-(pyrrolidinocarbonylamino)-pyrimidine]

test system: not given; assay: not given; settings: not given

melting point	SMILES
270 °C	CNc1nc(Nc2cccc(OCCN)c2)ncc1[N+](=O)[O-].Cl.Cl
288 °C	CNc1nc(Nc2ccc([S+](C)[O-])cc2)ncc1[N+](=O)[O-] (stereo not drawn) [Example 10 a), 2-(4-methylsulphinylphenylamino)-4-methylamino-5-nitropyrimidine]
323 °C	CNc1nc(Nc2ccc(S(C)(=O)=O)cc2)ncc1[N+](=O)[O-] [Example 10 b), 2-(4-methylsulphonylphenylamino)-4-methylamino-5-nitropyrimidine]
